Experimental findings from ChEMBL document CHEMBL1130524, “An aromatic moiety is not essential for pharmacophore binding to sigma binding sites: Synthesis of N-alkylazacycloheptane derivatives as potent sigma ligands” (Bioorg Med Chem Lett, 1997) are described below.

In general, Ki refers to the dissociation constant of the complex between target and ligand, obtained from inhibition or displacement.

The experiment addresses Sigma 2 receptor. In words: Inhibition of [3H]-DTG binding to Sigma opioid receptor type 2.
With `CC1(C)C2CC[C@]1(C)CN(CCCC1CCCCC1)C2`, affinity was put at a Ki of 0.56 nM.
Compound `CC1(C)C2CC[C@]1(C)CN(CCC1CCCCCCC1)C2` returned a Ki of 0.33 nM.
The compound `CC1(C)C2CC[C@@]1(C)CN(CC1CCCCC1)C2` came in with a Ki of 3.54 nM.
For `CC1(C)C2CC[C@]1(C)CN(CC1CCCCC1)C2` the value was 3.14 nM.
As to `CC1(C)C2CC[C@]1(C)CN(CCC1CCCC1)C2`, the Ki was found to be 0.7 nM. Compared with the last compound, the Ki is about 4.5-fold lower.
Compound `CC1(C)C2CC[C@]1(C)CN(CCC1C3CC4CC(C3)CC1C4)C2` (some centres not stated) had a Ki of 0.77 nM.
To `CC1(C)C2CC[C@]1(C)CN(C1CCCCC1)C2` belongs 1.1 nM.
`CC1(C)C2CC[C@]1(C)CN(CCCCC1CCCCC1)C2` came in with a Ki of 6.79 nM.
To `CC1(C)C2CC[C@]1(C)CN(CCC1CCCCC1)C2` belongs 0.28 nM.
With `CC1(C)C2CC[C@@]1(C)CN(CCC1CCCCC1)C2`, the Ki is 0.23 nM.
For the compound `CC1(C)C2CC[C@]1(C)CN(CCC1CCCCCC1)C2`, the affinity, expressed as Ki, was 0.25 nM.
The compound `C=CCN1CC[C@@]2(C)c3cc(O)ccc3C[C@H]1[C@H]2C` (racemic) had a Ki of 14200 nM. Compared with the last compound, the Ki is about 57000-fold higher.
